Where two headings read alike, the source gives them in different places. Each block holds one molecule with its values, some of them ahead of it. Where no end group is shown, it is not given here.
Assays:
[1] = tested on: human ovarian cancer stem cells 882CSC
[2] = tested on: human ovarian cancer stem cells 1031CSC
[3] = target: HLA-A*0201 molecules on T2 cells (Homo sapiens, UniProt P04439, D140Y/D185E/D98H/E176V/E277Q/G131W/G231S/I119V/I121R/I166T/I218V/L300P/L318F/N151K/N90K/P208A/P217A/Q86G/Q94H/R138H/R169H/T345S); assay: T2 cell binding assay of HLA-A2 peptides; settings: peptide 75 μg/ml; for binding with T2 cells (affinity in words): conclusion of Example 11; for affinity to HLA-A*0201 molecules (up-regulation of HLA-A*0201 molecules): FIG. 5A
[4] = Immunogenicity in vitro of A2 peptide epitopes (Table 1); format: cell-based; settings: Table 1, no method given
[5] = tested on: human ovarian cancer stem cells 882CSC; assay: Killing assay of peptide-specific CTLs (DDAO-SE and cleaved caspase-3 method); settings: target:effector 1:10, overnight, cleaved caspase-3, FIG. 6A
[6] = tested on: human ovarian cancer stem cells 1031CSC; assay: as above; settings: target:effector 1:10, overnight, cleaved caspase-3, FIG. 6B

Molecule: CSCC[C@H](NC(=O)[C@@H](N)C(C)C)C(=O)N[C@@H](C)C(=O)NCC(=O)N[C@H](C(=O)NCC(=O)N[C@@H](CO)C(=O)N1CCC[C@H]1C(=O)N[C@@H](Cc1ccc(O)cc1)C(=O)N[C@H](C(=O)O)C(C)C)C(C)C [HER2p773]
- cytotoxicity of peptide-specific CTLs against 882CSC [1]: efficiently recognize and lyse
- cytotoxicity of peptide-specific CTLs against 1031CSC [2]: efficiently recognize and lyse

- binding with T2 cells (affinity in words) [3]: lower binding capacity
- affinity to HLA-A*0201 molecules (up-regulation of HLA-A*0201 molecules) ([3]; overnight): low affinity
- MFI index (relative binding affinity fluorescence index) ([3]; overnight, FIG. 5B): less than 1
Molecule: EIWTHSYKV (listed as Homo sapiens) [FOLR1p191]
- Immunogenicity in vitro [4]: Yes

- binding with T2 cells (affinity in words) [3]: high affinity binding
Molecule: KVLEYVIKV (listed as Homo sapiens) [MAGEA1p278]
- Immunogenicity in vitro [4]: Yes

Molecule: SLLFLLFSL (listed as Homo sapiens)
- Immunogenicity in vitro [4]: Yes

Molecule: SLLMWITQC [NY-ESO-1p157]
- Immunogenicity in vitro [4]: Yes

Molecule: TLADFDPRV [EphA2p883]
- cytotoxicity of peptide-specific CTLs against 882CSC [5]: efficiently recognize and lyse
- cytotoxicity of peptide-specific CTLs against 1031CSC [6]: efficiently recognize and lyse

- binding with T2 cells (affinity in words) [3]: high affinity binding
- affinity to HLA-A*0201 molecules (up-regulation of HLA-A*0201 molecules) ([3]; overnight): high affinities
Molecule: VLPLTVAEV (listed as Homo sapiens) [mesothelinp531]
- Immunogenicity in vitro [4]: Yes

Molecule: WLPFGFILI [IL-13Rα2p345]
- cytotoxicity of peptide-specific CTLs against 882CSC [5]: efficiently recognize and lyse
- cytotoxicity of peptide-specific CTLs against 1031CSC [6]: efficiently recognize and lyse

Reference: US20140234351A1, “CANCER VACCINES AND VACCINATION METHODS” (ImmunoCellular Therapeutics, Ltd., priority 2013, published 2014)
